Data from ChEMBL document CHEMBL4680160, “A perspective review on fatty acid amide hydrolase (FAAH) inhibitors as potential therapeutic agents” (Eur J Med Chem, 2020).
Blank lines part the entries; values can stand above or below the compound they belong to.

Key:
[1] = target: T1, Fatty-acid amide hydrolase 1 (Rattus norvegicus) (UniProt P97612); assay: Inhibition of FAAH in rat brain homogenate using AEA as substrate at 100 nM preincubated for 15 mins followed by substrate addition and measured after 10 mins by scintillation counting method relative to control; format: tissue-based; conditions: time 25.0 min
T1 sequence (whole entry): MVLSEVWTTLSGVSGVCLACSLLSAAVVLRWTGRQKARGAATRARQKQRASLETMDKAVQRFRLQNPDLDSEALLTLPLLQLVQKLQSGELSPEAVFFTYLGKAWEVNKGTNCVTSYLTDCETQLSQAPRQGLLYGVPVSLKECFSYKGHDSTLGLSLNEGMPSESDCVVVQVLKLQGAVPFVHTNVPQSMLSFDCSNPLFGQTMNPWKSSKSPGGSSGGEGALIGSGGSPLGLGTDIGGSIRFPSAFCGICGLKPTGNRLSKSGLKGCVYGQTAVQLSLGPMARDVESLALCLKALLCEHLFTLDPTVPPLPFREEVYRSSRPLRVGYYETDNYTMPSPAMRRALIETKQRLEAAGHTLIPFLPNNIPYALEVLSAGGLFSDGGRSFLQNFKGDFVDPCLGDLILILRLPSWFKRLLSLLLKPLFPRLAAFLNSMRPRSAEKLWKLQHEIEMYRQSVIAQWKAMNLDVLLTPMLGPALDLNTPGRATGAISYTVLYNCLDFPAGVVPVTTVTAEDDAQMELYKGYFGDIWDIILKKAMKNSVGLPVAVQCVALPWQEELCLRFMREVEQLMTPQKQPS

[2] = target: T2, Fatty-acid amide hydrolase 1 (Homo sapiens, UniProt O00519); assay: Inhibition of human recombinant FAAH using (AMC) arachidonoyl amide as substrate preincubated for 5 mins followed by substrate addition and measured after 30 mins by fluorescence method
T2 sequence (O00519 whole entry): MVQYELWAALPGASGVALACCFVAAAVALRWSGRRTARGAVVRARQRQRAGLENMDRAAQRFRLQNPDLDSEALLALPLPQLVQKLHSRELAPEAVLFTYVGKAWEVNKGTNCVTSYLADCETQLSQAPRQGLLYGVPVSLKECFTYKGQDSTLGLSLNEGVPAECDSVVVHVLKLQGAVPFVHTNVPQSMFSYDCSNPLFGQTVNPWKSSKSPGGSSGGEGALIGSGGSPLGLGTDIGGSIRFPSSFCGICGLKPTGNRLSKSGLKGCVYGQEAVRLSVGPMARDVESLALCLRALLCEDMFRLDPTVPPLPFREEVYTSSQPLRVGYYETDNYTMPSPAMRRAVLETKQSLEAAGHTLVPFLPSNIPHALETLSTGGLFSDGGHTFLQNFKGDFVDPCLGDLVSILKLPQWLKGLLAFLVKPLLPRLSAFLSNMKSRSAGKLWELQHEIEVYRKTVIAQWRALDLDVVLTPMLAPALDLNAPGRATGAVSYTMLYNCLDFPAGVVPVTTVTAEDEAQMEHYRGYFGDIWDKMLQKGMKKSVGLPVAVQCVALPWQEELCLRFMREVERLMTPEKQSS

[3] = target: T2, Fatty-acid amide hydrolase 1; assay: Inhibition of human FAAH expressed in HEK293 cells using AMC arachidonyl amide as substrate pre-incubated for 50 mins followed by substrate addition and measured after 30 mins by fluorescence method; format: cell-based
[4] = target: T3, Fatty-acid amide hydrolase 1 (Rattus norvegicus, UniProt P97612); assay: Inhibition of FAAH in Sprague-Dawley rat brain homogenate using arachidonoyl-ethanolamide and anandamide [ethanolamine-1-3H] as substrate pre-incubated for 10 mins followed by substrate addition and measured after 30 mins by liquid scintillation counting method; format: tissue-based
T3 sequence (P97612 whole entry): T1 sequence (whole entry)

[5] = Kinetic solubility of compound in PBS at pH 7.4; format: physicochemical; conditions: read-out: Kinetic_solubility
[6] = target: T1, Fatty-acid amide hydrolase 1 (Rattus norvegicus); assay: Inhibition of rat FAAH expressed in HEK293 cells using AEA as substrate at 100 uM by liquid chromatography/mass spectroscopy relative to control; format: cell-based
[7] = target: T4, Fatty-acid amide hydrolase 1 (Mus musculus, UniProt O08914); assay: Inhibition of FAAH in OF1 albino mouse brain homogenate assessed as reduction in [3H]ethanolamine production using [3H]anandamide as substrate; format: tissue-based
T4 sequence (O08914 whole entry): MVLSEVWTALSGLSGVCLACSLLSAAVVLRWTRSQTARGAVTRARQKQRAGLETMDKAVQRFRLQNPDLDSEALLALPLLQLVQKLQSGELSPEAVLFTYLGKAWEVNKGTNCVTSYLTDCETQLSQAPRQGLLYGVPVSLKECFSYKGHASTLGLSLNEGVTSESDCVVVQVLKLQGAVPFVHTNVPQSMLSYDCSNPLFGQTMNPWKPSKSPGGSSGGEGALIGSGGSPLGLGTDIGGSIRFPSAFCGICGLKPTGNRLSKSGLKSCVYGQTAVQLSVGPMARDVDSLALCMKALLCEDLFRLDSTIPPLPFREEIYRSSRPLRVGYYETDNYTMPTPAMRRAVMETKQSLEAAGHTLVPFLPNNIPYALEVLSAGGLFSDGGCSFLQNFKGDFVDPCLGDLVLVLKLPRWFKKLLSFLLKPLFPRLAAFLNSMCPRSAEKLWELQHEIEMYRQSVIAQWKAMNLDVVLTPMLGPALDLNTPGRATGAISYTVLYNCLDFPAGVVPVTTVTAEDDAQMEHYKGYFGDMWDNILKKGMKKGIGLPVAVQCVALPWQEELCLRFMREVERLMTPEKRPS

[8] = target: T2, Fatty-acid amide hydrolase 1; assay: Inhibition of FAAH (unknown origin)
Cannabinoid receptor 2 = Cannabinoid receptor 2 (Homo sapiens, UniProt P34972); assay: Displacement of [3H]-CP55940 from recombinant human CB2 receptor expressed in CHO cells incubated for 90 mins by scintillation counting method; format: cell-based
[9] = target: T3, Fatty-acid amide hydrolase 1; assay: Inhibition of rat FAAH expressed in HEK293 cells using AEA as substrate by HPLC-MS/MS analysis; format: cell-based

Cannabinoid receptor 2, sequence (P34972 whole entry): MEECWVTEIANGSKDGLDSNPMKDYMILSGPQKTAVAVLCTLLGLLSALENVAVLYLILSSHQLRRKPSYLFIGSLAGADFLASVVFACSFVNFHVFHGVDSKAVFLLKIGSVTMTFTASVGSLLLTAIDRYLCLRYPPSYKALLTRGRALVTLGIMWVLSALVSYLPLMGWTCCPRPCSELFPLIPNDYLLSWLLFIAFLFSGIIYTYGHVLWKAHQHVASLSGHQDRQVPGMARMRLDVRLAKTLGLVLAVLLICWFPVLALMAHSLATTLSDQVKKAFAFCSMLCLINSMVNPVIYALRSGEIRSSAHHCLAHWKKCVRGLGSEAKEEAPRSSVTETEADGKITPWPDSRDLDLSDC

inhibition [1]: 85%
Compound: CN(C(=O)n1cnc(-c2ccc[n+]([O-])c2)c1)C1CCCCC1

IC50 [2]: 1490 nM
Compound: O=C1/C(=N/c2nc3ccccc3[nH]2)c2ccccc2N1C(=O)c1ccc(Cl)cc1Cl

Compound: O=C(NCCCCN1CCN(c2cccc(Cl)c2Cl)CC1)Oc1cccc2ccccc12
IC50 [3]: 6.1 nM
IC50 [4]: 22 nM
solubility kinetic [5]: < 1 µM

inhibition [6]: 98.3%
Compound: CCCCCCCC/C=C\CCCCCCCC(=O)NO

Compound: COc1ccc2c(cccc2[C@H]2CO[C@H](CCCNC(=O)OCC(N)=O)OC2)c1
IC50 [7]: 62.5 nM

IC50 [8]: > 10000 nM
Compound: CCCCCOc1ccccc1-c1cc(C(=O)NC23CC4CC(CC(C4)C2)C3)no1

Compound: O=C(NCCCCN1CCN(c2cccc(Cl)c2Cl)CC1)Oc1ccc2ccccc2c1
IC50 [3]: 2.7 nM
IC50 [4]: 13 nM

IC50 (Cannabinoid receptor 2): > 1000 nM
Compound: CCCCCOc1ccc(-c2cc(C(=O)NC34CC5CC(CC(C5)C3)C4)no2)cc1

IC50 [9]: 53 nM
Compound: O=C(NCCc1ccc(-c2ccccc2)cc1)n1ccc(=O)[nH]c1=O

IC50 [9]: 21 nM
Compound: O=C(NCCCc1ccccc1)n1cc(C(F)(F)F)c(=O)[nH]c1=O

Compound: NC(=O)c1ccc(-c2ccc(OC(=O)NCCCCN3CCN(c4cccc(Cl)c4Cl)CC3)cc2)cc1
IC50 [3]: 0.6 nM
IC50 [4]: 0.7 nM
